Columns and labels:
[1] = biological target: Voltage-dependent N-type calcium channel subunit alpha-1B (Homo sapiens, UniProt Q00975); assay: Inhibition of N-type calcium channels in IMR-32 human neuroblastoma cells; assay type: cell-based
Mus musculus [2] = assay: Percentage of protection from audiogenic tonic seizures in DBA/2 mice after intravenous administration at a dose of 30 mg/kg; assay type: functional
Mus musculus [3] = assay: Percentage of protection from audiogenic tonic seizures in DBA/2 mice after intravenous administration at a dose of 10 mg/kg; assay type: functional

Voltage-dependent N-type calcium channel subunit alpha-1B, sequence (Q00975 whole entry): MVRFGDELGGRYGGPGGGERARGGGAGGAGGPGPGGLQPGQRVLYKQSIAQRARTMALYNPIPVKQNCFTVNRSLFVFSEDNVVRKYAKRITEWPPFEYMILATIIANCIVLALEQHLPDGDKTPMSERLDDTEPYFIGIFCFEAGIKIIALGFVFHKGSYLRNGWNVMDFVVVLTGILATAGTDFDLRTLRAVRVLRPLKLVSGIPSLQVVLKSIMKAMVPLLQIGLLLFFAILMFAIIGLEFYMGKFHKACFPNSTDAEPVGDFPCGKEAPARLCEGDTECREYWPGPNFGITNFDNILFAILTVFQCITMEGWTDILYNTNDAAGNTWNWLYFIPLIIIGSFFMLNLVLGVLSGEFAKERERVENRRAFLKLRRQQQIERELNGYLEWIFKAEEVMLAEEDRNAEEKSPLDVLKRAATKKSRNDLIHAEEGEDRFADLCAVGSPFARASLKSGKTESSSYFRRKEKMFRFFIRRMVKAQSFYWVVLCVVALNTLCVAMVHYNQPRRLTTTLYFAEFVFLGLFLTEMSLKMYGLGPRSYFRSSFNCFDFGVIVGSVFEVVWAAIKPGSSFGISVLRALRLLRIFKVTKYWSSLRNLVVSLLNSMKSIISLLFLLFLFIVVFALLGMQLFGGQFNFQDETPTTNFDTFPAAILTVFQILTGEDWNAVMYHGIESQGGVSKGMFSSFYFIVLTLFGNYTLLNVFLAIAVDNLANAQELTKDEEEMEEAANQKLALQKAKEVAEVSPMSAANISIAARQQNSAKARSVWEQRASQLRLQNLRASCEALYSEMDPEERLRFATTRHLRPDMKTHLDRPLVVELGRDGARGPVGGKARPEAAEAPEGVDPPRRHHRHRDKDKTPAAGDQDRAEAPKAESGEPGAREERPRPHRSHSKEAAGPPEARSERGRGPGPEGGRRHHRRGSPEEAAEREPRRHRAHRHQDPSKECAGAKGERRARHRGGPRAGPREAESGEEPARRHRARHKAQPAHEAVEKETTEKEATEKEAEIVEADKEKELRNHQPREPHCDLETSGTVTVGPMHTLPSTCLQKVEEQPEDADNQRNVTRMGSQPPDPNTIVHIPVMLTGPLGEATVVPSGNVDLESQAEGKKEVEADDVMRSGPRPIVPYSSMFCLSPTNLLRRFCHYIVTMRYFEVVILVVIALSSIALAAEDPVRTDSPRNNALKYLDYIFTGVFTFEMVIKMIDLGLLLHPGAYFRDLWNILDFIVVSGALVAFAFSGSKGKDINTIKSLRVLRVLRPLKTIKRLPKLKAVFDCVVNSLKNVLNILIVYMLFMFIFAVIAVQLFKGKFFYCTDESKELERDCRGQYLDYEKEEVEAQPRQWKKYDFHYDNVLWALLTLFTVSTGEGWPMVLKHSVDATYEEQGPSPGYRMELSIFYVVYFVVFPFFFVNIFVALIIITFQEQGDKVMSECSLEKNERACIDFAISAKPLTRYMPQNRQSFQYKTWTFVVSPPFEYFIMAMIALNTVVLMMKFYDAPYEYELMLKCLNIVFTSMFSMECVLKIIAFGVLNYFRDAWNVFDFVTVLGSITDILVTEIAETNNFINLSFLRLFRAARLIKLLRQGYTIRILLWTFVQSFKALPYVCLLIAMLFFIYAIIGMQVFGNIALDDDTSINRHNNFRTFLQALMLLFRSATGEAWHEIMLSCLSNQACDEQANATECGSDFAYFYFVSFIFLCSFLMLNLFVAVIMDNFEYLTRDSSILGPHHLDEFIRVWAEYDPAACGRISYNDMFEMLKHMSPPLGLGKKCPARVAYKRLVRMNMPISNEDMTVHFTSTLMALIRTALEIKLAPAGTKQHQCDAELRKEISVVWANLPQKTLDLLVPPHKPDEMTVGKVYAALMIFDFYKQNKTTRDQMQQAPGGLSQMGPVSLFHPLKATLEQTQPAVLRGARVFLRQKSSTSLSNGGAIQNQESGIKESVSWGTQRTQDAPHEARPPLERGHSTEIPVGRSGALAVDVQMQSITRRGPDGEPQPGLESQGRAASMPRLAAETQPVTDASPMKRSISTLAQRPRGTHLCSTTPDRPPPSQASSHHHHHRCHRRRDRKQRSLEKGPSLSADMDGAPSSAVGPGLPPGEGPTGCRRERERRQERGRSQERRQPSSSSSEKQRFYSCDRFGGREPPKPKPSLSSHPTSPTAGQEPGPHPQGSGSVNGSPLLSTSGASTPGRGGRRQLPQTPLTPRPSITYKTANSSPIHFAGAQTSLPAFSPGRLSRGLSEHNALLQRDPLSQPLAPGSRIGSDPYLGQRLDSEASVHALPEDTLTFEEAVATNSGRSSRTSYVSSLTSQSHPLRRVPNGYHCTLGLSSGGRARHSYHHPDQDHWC

Structure (SMILES)	IC50 [1] [µM]	Protection (Mus musculus [2]) [%]	Protection (Mus musculus [3]) [%]
CC(C)C[C@@H](C(=O)N[C@@H](Cc1ccc(OC(=O)c2ccccc2)cc1)C(=O)NC(C)(C)C)N(C)Cc1ccco1	1.6	60	
CC(C)C[C@@H](C(=O)N[C@@H](Cc1ccc(OC(=O)c2ccccc2)cc1)C(=O)NC(C)(C)C)N(C)Cc1ccc(O)cc1	1		
CC(C)C[C@@H](C(=O)N[C@@H](Cc1ccc(OC(=O)c2ccccc2)cc1)C(=O)NC(C)(C)C)N(C)Cc1ccccc1Cl	0.56		
CC(C)C[C@@H](C(=O)N[C@@H](Cc1ccc(OC(=O)c2ccccc2)cc1)C(=O)NC(C)(C)C)N(C)Cc1ccc(C(C)(C)C)cc1	0.036	60	
CC(C)C[C@@H](C(=O)N[C@@H](Cc1ccc(OC(=O)c2ccccc2)cc1)C(=O)NC(C)(C)C)N(C)Cc1ccccc1	0.36		
CC(C)C[C@@H](C(=O)N[C@@H](Cc1ccc(OC(=O)c2ccccc2)cc1)C(=O)NC(C)(C)C)N(C)Cc1cccnc1	1.7		
CC(C)C[C@@H](C(=O)N[C@@H](Cc1ccc(OC(=O)c2ccccc2)cc1)C(=O)NC(C)(C)C)N(C)CCCc1ccccc1	1.9		
CC(C)C[C@@H](C(=O)N[C@@H](Cc1ccc(OC(=O)c2ccccc2)cc1)C(=O)NC(C)(C)C)N(C)CCc1ccccc1	1.7		
CC(C)C[C@@H](C(=O)N[C@@H](Cc1ccc(OC(=O)c2ccccc2)cc1)C(=O)NC(C)(C)C)N(C)Cc1cccc(Cl)c1	1		
CC(C)C[C@@H](C(=O)N[C@@H](Cc1ccc(OC(=O)c2ccccc2)cc1)C(=O)NC(C)(C)C)N(C)Cc1ccc(Br)cc1	0.13		
CC(C)C[C@@H](C(=O)N[C@@H](Cc1ccc(OC(=O)c2ccccc2)cc1)C(=O)NC(C)(C)C)N(C)Cc1ccc(N(C)C)cc1	0.28	80	
COc1ccc(CN(C)[C@@H](CC(C)C)C(=O)N[C@@H](Cc2ccc(OC(=O)c3ccccc3)cc2)C(=O)NC(C)(C)C)cc1	0.5	100	40
CC(C)C[C@@H](C(=O)N[C@@H](Cc1ccc(OC(=O)c2ccccc2)cc1)C(=O)NC(C)(C)C)N(C)Cc1ccc(Cl)cc1	0.23		
CC(C)C[C@@H](C(=O)N[C@@H](Cc1ccc(OC(=O)c2ccccc2)cc1)C(=O)NC(C)(C)C)N(C)CC1CCCCC1	0.68	100	20
